{"source": "patent US4801594A", "about": "“Aromatase inhibitors” (Eli Lilly and Company, priority 1984, dated 1989)", "origin": "cited, not measured here", "test_system": "breast cancer", "settings": "known aromatase inhibitors; see Cancer Research, Vol. 42, Suppl. 8: 3261s (1982)"}
{"smiles": "C[C@]12C=CC(=O)C=C1CC[C@@H]1[C@@H]2CC[C@]2(C)OC(=O)CC[C@@H]12", "note": "[testolactone]", "values": [{"measurement": "effect in treatment of breast cancer", "value": "beneficial effect"}]}
{"smiles": "CCC1(c2ccc(N)cc2)CCC(=O)NC1=O", "note": "(centres unmarked) [aminoglutethimide]", "values": [{"measurement": "effect in treatment of breast cancer", "value": "beneficial effect"}]}
